Data on two compounds can be found in patent publication US20040253189A1, “Breath Freshening and Oral Cleansing Product Using Geraniol” (priority 2002, published 2004).

Converted amounts (≈) assume the structure as drawn.

Holding throughout (type): cell-based
Experiment [1] deals with Fusobacterium nucleatum. Nature of the experiment: MIC (minimum inhibitory concentration) study, 96 well microtiter plates. Conditions: F. nucleatum, 48 hours at 37° C., turbidity at 660 nm. How it is done: (§1) In vitro tests were conducted with a gram positive supragingival plaque bacterium, Streptococcus mutans. In addition, two subgingival plaque bacteria associated with oral malodor were tested, Porphyromonas gingivalis and Fusobacterium nucleatum. The MIC (Minimum Inhibitory Concentrations) study protocol is as follows. Chlorhexidine was used as a positive control and sterile water was used as a negative control. Geraniol was suspended in 10% methanol with 3.8% Tween 80. […] 96 well microtiter plates were used for this study. Each well contained 5×10^5 colony forming units/ml of bacteria, serially diluted agents and bacterial growth medium. All bacterial cultures were incubated at 37° C. and stationary. Bacterial growth was estimated spectrophotometrically at 660 nm, after 48 hours. The MIC for each test bacteria was defined as the minimum concentration of test compound limiting turbidity to <absorbance at 660 nm.

Experiment [2] deals with Porphyromonas gingivalis. The experiment is described as above. Conditions: P. gingivalis, 48 hours at 37° C., turbidity at 660 nm. How it is done:
as §1

For experiment [3], the system named is Fusobacterium nucleatum. Nature of the experiment: MBC (minimum bactericidal concentration) determination, plating on blood agar. To be noted: F. nucleatum, lowest concentration that killed at least 99.9% of initial inoculum. As to the method: as §1, with “[…]. The MBC (Minimum bactericidal concentrations) were determined using the 96 well microtiter plate serial dilutions as described above for MIC studies. Serial dilution of cultures in wells showing no visible growth were performed and 10 microliters of culture were plated in triplicate on blood agar plates. Viable colonies were scored after incubation of the plates for 48 hours at 37° C. For each test bacterium, the number of CFU/ml were determined in the initial inoculum. The MBC was defined as the lowest concentration of a test compound that killed at least 99.9% of the cells present in the initial inoculum.” for “nm.”

The test system of experiment [4] is Porphyromonas gingivalis. The description is as above. To be noted: P. gingivalis, lowest concentration that killed at least 99.9% of initial inoculum. As to the method: as §1, with “[…]. The MBC (Minimum bactericidal concentrations) were determined using the 96 well microtiter plate serial dilutions as described above for MIC studies. Serial dilution of cultures in wells showing no visible growth were performed and 10 microliters of culture were plated in triplicate on blood agar plates. Viable colonies were scored after incubation of the plates for 48 hours at 37° C. For each test bacterium, the number of CFU/ml were determined in the initial inoculum. The MBC was defined as the lowest concentration of a test compound that killed at least 99.9% of the cells present in the initial inoculum.” for “nm.”

Experiment [5] relates to Streptococcus mutans. In words: MIC (minimum inhibitory concentration) study, 96 well microtiter plates. To be noted: S. mutans, 48 hours at 37° C., turbidity at 660 nm. As to the method: as §1
Experiment [6] has as its system Streptococcus mutans. Nature of the experiment: MBC (minimum bactericidal concentration) determination, plating on blood agar. Conditions: S. mutans, lowest concentration that killed at least 99.9% of initial inoculum. How it is done:
as §1, with “[…]. The MBC (Minimum bactericidal concentrations) were determined using the 96 well microtiter plate serial dilutions as described above for MIC studies. Serial dilution of cultures in wells showing no visible growth were performed and 10 microliters of culture were plated in triplicate on blood agar plates. Viable colonies were scored after incubation of the plates for 48 hours at 37° C. For each test bacterium, the number of CFU/ml were determined in the initial inoculum. The MBC was defined as the lowest concentration of a test compound that killed at least 99.9% of the cells present in the initial inoculum.” for “nm.”

As usually defined, the MIC is the lowest concentration found to suppress growth. As a reminder, the MBC is the smallest concentration meeting the test's criterion for killing. A high value points to weaker bactericidal potency. Regarding `[H]/N=C(\N/C(=N/[H])NCCCCCCNC(=N)NC(=N)Nc1ccc(Cl)cc1)Nc1ccc(Cl)cc1` [Cholorhexidine, Chlorhexidine, reference compound], the MIC in experiment [1] and in experiment [2] was 1.25 µg/mL (≈ 2.47 µM) each time. The minimum bactericidal concentration (MBC) in experiment [3] and in experiment [4] was 1.25 µg/mL (≈ 2.47 µM) throughout.

For `CC(C)=CCC/C(C)=C/CO` [geraniol], the minimal inhibitory concentration (MIC) in experiment [1] is 125 µg/mL (≈ 810 µM); in experiment [5], 500 µg/mL (≈ 3240 µM); in experiment [2], 125 µg/mL (≈ 810 µM). The MBC in experiment [3] was determined as 125 µg/mL (≈ 810 µM); in experiment [6], 250 µg/mL (≈ 1620 µM); in experiment [4], 125 µg/mL (≈ 810 µM).
